Entries after “also recorded” stand apart in the source; their conditions may differ.
System: inbred transgenic mice with mutant thyroid hormone receptor beta (TRβPV) and wild-type mice
Assay: Behavioral analysis of locomotor activity (light beam breaks) after methylphenidate
Format: in vivo, mouse
Settings: methylphenidate 7.5 mg/kg or 30.0 mg/kg on day 3, activity assessed for 3 hours following injection
Method: Animals were kept on a light-dark schedule of 12 hours with lights on at 6:00 a.m. Behavioral tests were started between 4:30 p.m. and 5:30 p.m. Eleven-to sixteen-week-old mice were assessed in a 15×30 cm cage with four light beams crossing the cage on the long axis. Locomotor activity was measured by computer-automated counting of the number of times a light beam was blocked (San Diego Instruments, San Diego, Calif.). Activity was measured for 3 hours upon introduction of each animal to the chamber on day 1 to measure baseline/novel behavior levels (see FIG. 3), and the animals remained in the chambers for the length of the experiment (3 days) to permit drug response in an acclimated environment. On day 2, animals were injected with saline (i.p),and on day 3 with methylphenidate (7.5 mg/kg or 30.0 mg/kg). Food and water were provided ad libitum, and activity was assessed for 3 hours following injection. Activity scores were subjected to analysis of variance (ANOVA) analysis to compare the groups by genotype and injection status.

COC(=O)C(c1ccccc1)C1CCCCN1 (centres unmarked) [methylphenidate]
level of locomotor activity in response to methylphenidate (heterozygous and homozygous TRβ PV mutant inbred mice): decreased levels of activity; also recorded: responded to treatment; also recorded: reduced their level of activity; also recorded: level of activity in these mice was reduced
level of locomotor activity in response to methylphenidate (wild-type mice): increase in activity

— patent publication US20020133837A1, “Transgenic animals at a nuclear hormone receptor locus” (priority 2001, published 2002)
